Consider 78 compounds from the METLIN SMRT retention time set (Domingo-Almenara et al. 2019).

The nature of the data set: gradient 5% acetonitrile 3 min, to 50% in 2 min, to 85% in 15 min, held 3 min, 100 µL/min. Particulars: column: Zorbax Extend-C18 2.1 x 50 mm; eluents: water / acetonitrile, 0.1% formic acid. The method, boiled down: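 Retention times of pure standards were taken from adduct peaks that were selected by computer and manually inspected. Over 3 months, mixtures of ~100 molecules were run by HPLC–quadrupole time-of-flight mass spectrometry in positive and negative ionization mode. The Zorbax Extend-C18 column (2.1 × 50 mm, 1.8 μm) ran at 100 μL/min in water and acetonitrile, each containing 0.1% formic acid, with 40 μL dead volume and 900 μL dwell volume.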
For the compound `O=C([C@@H]1C[C@H](F)CN1C(=O)Nc1ccc(Br)cc1)N1CCCCC1`, the RP-LC retention time came to 725 s.
The result for `COc1ccc(CNC(=O)C2(C)CCN(C(=O)Nc3ccccc3C(F)(F)F)CC2)cc1` reads 834 s; that for `COc1ccc(NC(=O)Cn2c(=O)c(CCC(=O)NC3CCCC3)nc3ccccc32)c(OC)c1`, 792 s; that for `Cc1cccc(N2CCN(Cc3nc(-c4ccc(N5CCCC(C)C5)nc4)no3)CC2)c1` (stereo not drawn), 1100 s.
The result for `Cc1ccc(C2Cn3cnc(C(=O)N4CCC(C(=O)NCc5ccccc5)CC4)c3CO2)cc1` (stereo not drawn) reads 796 s; that for `CCc1noc(C2(NC(=O)c3cccc(N(C)C)c3)CCCCC2)n1`, 867 s.
In turn, `Cc1nn(-c2ccccc2)c(C)c1S(=O)(=O)N1CCC(C(=O)NC2CCCCCCC2)CC1` displayed an RP-LC retention time of 1050 s.
With `CCOc1ccc(-c2csc(Cc3nc(-c4ccc(OC)cc4)no3)n2)cc1` the figure was 1230 s; with `COc1ccc(C2C(C(=O)O)c3ccccc3C(=O)N2C)cc1OC` (stereo not drawn), 657 s.
The result for `CCNc1nn2ccccc2c1/C=C(/C#N)C(=O)OCC` reads 936 s; that for `O=c1c2nc(-c3ccc(Cl)cc3)cn2ccn1-c1ccc(F)c(F)c1`, 891 s; that for `COc1ccc(CNC(=O)C2=C3CCCN3c3ccc(F)cc3S2(=O)=O)c(OC)c1`, 870 s.
With `Cc1ccc(NC(=O)Cn2c(C)cc(-c3nnc(C4CCC4)o3)c2C)cc1C` the figure was 902 s; with `CC1CCCCN1CCNC(=O)CCCn1c(=O)c2cccn2c2ccc(F)cc21` (stereo not drawn), 641 s.
Take `CC(C)n1cc(S(=O)(=O)Nc2ccc(F)cc2Cl)c2cccnc21`: the RP-LC retention time was found to be 989 s.
The result for `O=C(CN1CC=C(c2cnn(-c3ccccc3)c2)CC1)N1CCC(N2CCCCC2)CC1` reads 573 s; that for `CC(NC(=O)c1ccccc1)c1nc(-c2cccc(-c3ccnn3C)c2)no1` (stereo not drawn), 840 s; that for `Cc1c(Cl)cccc1NC(=O)CSc1ccc(N2CCCC(C(=O)NC3CC3)C2)nn1` (stereo not drawn), 645 s.
For the compound `C[C@@H](NC(=O)c1ncnc(N)c1Cl)c1ncc(C(=O)Nc2cc(C(F)(F)F)c(Cl)cn2)s1`, the RP-LC retention time amounted to 913 s.
With `CC1CCCN(C(=O)CN(C)S(=O)(=O)c2ccc3c(c2)CCCC(=O)N3)C1` (stereo not drawn) the figure was 718 s.
The result for `CC(=O)Nc1ccc(-c2noc(C3CCCN(C(=O)Cc4ccc(Br)cc4)C3)n2)cc1` (stereo not drawn) reads 872 s; that for `COC(=O)c1ccc(C(=O)NCC(O)c2cccc3ccccc23)cc1` (stereo not drawn), 771 s; that for `COC(=O)c1ccc2c(=O)n(-c3ccc(Cl)cc3)c(N3CCOCC3)nc2c1`, 975 s.
For the compound `CCc1ccccc1NC(=O)N1CCN(c2cc(C)nc(N3CCCC3)n2)CC1`, the RP-LC retention time turned out to be 670 s.
For `CC1(c2ccc3ccccc3c2)CCC(=O)O1` (stereo not drawn), the RP-LC retention time stood at 970 s.
The result for `COc1ccc(C2=NC3(CCN(C(=O)c4ccc(OC)cc4OC)CC3)NC2=O)cc1` reads 776 s; that for `O=C(c1cc2n(n1)CCCN(Cc1ccc(F)cc1)C2=O)N1CCN(c2ccccn2)CC1`, 802 s.
Consider `Cc1ccc(NC(=O)CCc2nc(-c3ccc(N4CCCC4)cc3)no2)c(Br)c1`, for which the RP-LC retention time is 1170 s.
For `CCN1CCC2(CC1)NC(=O)N(CC(=O)Nc1ccc(OC(F)(F)F)cc1)C2=O`, the RP-LC retention time was found to be 582 s.
The result for `CCCC(=O)NC1CCN(c2ccccc2)C1=O` (stereo not drawn) reads 660 s; that for `CNC(=O)C1CCCN(C(=O)Nc2ccc(NC(=O)Nc3ccc(C)c(C)c3)cc2)C1` (stereo not drawn), 722 s; that for `Cc1nnc2ccc(NC(=O)Nc3ccc(F)cc3)cn12`, 660 s.
With `Cc1nc2c(sc3nc(-c4ccccc4)ccc32)c(=O)n1CC(=O)NCc1ccc(Cl)cc1` the figure was 1210 s.
`CCn1nc2c(S(=O)(=O)N3CCN(c4ccc(F)cc4)CC3)cccn2c1=O`: the RP-LC retention time worked out at 1250 s.
The result for `O=C1CC(c2cccc(Cl)c2)Cc2c1cnn2-c1nc2ccccc2[nH]1` (stereo not drawn) reads 1030 s; that for `CCOc1ccc(NS(=O)(=O)c2c(C)sc(C)c2-c2n[nH]c(C)c2C)cc1`, 1040 s.
Compound `COc1ccc(OC)c(NC(=O)N2CCC3(CC2)N=C(c2cccc(F)c2)C(=O)N3)c1` registered an RP-LC retention time of 856 s.
`Cn1c(=O)c(N2CCC(NC(=O)NCc3ccc(F)cc3)CC2)nc2ccccc21` gave an RP-LC retention time of 814 s.
In turn, `CN(C)c1ccc(NC(=O)Cn2nc3c(Oc4ccccc4Cl)nccn3c2=O)cc1` had an RP-LC retention time of 676 s.
As to `CCOC(=O)c1[nH]c(C)c(CCC(=O)N2CCCC(C(=O)NC3CCCC3)C2)c1C` (stereo not drawn), the RP-LC retention time was 746 s.
`CC(C(=O)Nc1cccc(F)c1)C1CCN(C(=O)Nc2ccc(Cl)cc2)CC1` (stereo not drawn) yielded an RP-LC retention time of 951 s.
The compound `COc1ccc(-c2noc(Cn3nc(-c4ccc(C)cc4)ccc3=O)n2)c(OC)c1` returned an RP-LC retention time of 949 s.
The result for `COc1ccc(-c2cn3ccn(-c4cccc(F)c4)c(=O)c3n2)cc1OC` reads 746 s; that for `CCOC(=O)c1noc2ncnc(N3CCN(c4ccccc4)CC3)c12`, 968 s; that for `Cc1cnn(CCC(=O)N2CCCn3ccnc3C2C2CCCC2)c1` (stereo not drawn), 611 s.
The result for `O=S(=O)(c1ccc(F)c(F)c1)N1CCCC(Cn2c(C3CC3)nc3cccnc32)C1` (stereo not drawn) reads 782 s.
The result for `COc1ccc(-c2nc(C(=O)N3CCN(C)CC3)sc2-c2ccc(OC)cc2)cc1` reads 748 s.
Consider `CC(C)CN1C(=O)c2cccn2CC1C(=O)NCCCOC(C)C` (stereo not drawn), for which the RP-LC retention time was 718 s.
The result for `COCCn1cc2c3c(cccc31)CN(C(=O)Cc1ccccc1Cl)CC2` reads 975 s.
As for `COc1ccc(C(C)NC(=O)C2=C3CCCN3c3ccc(F)cc3S2(=O)=O)cc1OC` (stereo not drawn), the RP-LC retention time turned out to be 821 s.
`O=C(NCc1ccc(Br)cc1)C1CCCN(c2ncc(-c3ccc(F)cc3)cn2)C1` (stereo not drawn): the RP-LC retention time was determined as 1120 s.
In turn, `Cc1ccc(N2C(=O)N(Cc3ccccc3)S(=O)(=O)c3cccnc32)cc1F` gave an RP-LC retention time of 1100 s.
The compound `COc1ccc(NC(=O)N2[C@H]3CC[C@@H]2c2cnc(C)nc2C3)cc1F` showed an RP-LC retention time of 671 s.
With `Cc1nnc(N2CCCC(C(=O)Nc3ccccc3Cl)C2)c2nn(-c3ccccc3)c(C)c12` (stereo not drawn) the figure was 767 s; with `COc1ccc(CN2CC[C@@H]3CN(S(C)(=O)=O)[C@@H]3C2)cc1C`, 617 s; with `O=C(CN1CCN(Cc2ccc(F)cc2)C1=O)NCc1ccc(F)cc1Cl`, 844 s.
For `CCn1c(=O)c(N2CCCC(C(=O)NCCc3ccco3)C2)nc2cccnc21` (stereo not drawn), the RP-LC retention time was found to be 828 s.
The result for `Cc1cc2nc(SCc3noc(CCC(=O)Nc4nc(-c5ccccc5)cs4)n3)[nH]c2cc1C` reads 814 s; that for `CCN(CC)CCCNC(=O)C1CCCN(c2nnc(C)c3c(C)n(-c4ccc(Cl)cc4)nc23)C1` (stereo not drawn), 598 s; that for `CCc1cccc(C)c1NS(=O)(=O)c1ccc(-c2c(C)noc2C)cc1`, 1020 s.
Take `O=C(NCCc1c[nH]c2ccccc12)c1cc2occc2c(Nc2ccc(F)cc2)n1`: the RP-LC retention time worked out at 1020 s.
With `Cc1nnc(C2CCCCCN2C(=O)c2occc2C)o1` (stereo not drawn), the RP-LC retention time was determined as 718 s.
As to `CC(=O)c1sc(NC(=O)c2ccn(C)n2)nc1C`, the RP-LC retention time is 630 s.
With `O=C(NC1CCN(c2cc(-c3ccc(Cl)cc3)[nH]n2)C1)c1cccc(OC(F)(F)F)c1` (stereo not drawn) the figure was 862 s; with `Cc1nc(N2CCOCC2)c2c(C(=O)Nc3ccccc3Cl)c(C)oc2n1`, 911 s.
With `O=C(O)c1cc(-c2ccccn2)nc2ccc(Br)cc12` the figure was 889 s; with `Cc1c(Cl)cccc1NC(=O)N1CC(n2cnnc2-c2ccccc2)C1`, 720 s.
With `Cc1oc(C)c(S(=O)(=O)NC2CC2)c1C(=O)NCc1ccc2c(c1)OCO2` the figure was 830 s; with `CCOC(=O)C1CCN(C(=O)CCC2CCCN(c3cc(NC4CC4)ncn3)C2)CC1` (stereo not drawn), 662 s; with `CCc1cc(C(=O)Nc2cc(C)ccc2OC)nc2ccnn12`, 1190 s.
Consider `CCOC(=O)c1c(C)c(CCC(=O)NC(C)C)n(CC)c1C`, for which the RP-LC retention time was 821 s.
The result for `Cc1noc(C)c1-c1ccc(S(=O)(=O)Nc2ccc(C(C)C)cc2)cc1` reads 1060 s; that for `Cc1nc(-c2csc(S(=O)(=O)N3CCC(C(=O)NC4CC4)CC3)c2)no1`, 723 s.
The compound `COc1ccc(-c2nnc(COc3ccc(NC(=O)c4cccnc4SC)cc3)o2)cc1` came in with an RP-LC retention time of 893 s.
The result for `CCc1ccccc1NC(=O)Cn1c(N)nc(CC)c(C)c1=O` reads 633 s.
With `Cc1cccc(NC(=O)Nc2nccn(-c3ccc(C(C)C)cc3)c2=O)c1` the figure was 1190 s.
With `CC(C)CN1CCn2cc(S(=O)(=O)Nc3ccc(F)cc3Cl)cc2C1=O` the figure was 838 s; with `CCOC(=O)c1cc(S(=O)(=O)N2CCCC2C(=O)N2CCN(c3ccccn3)CC2)cn1C` (stereo not drawn), 600 s.
